Positions of bridges follow the written chain, without caps; N, C: chain ends. Residues, ends and D or L forms follow the SMILES beside them.
Assays:
Assay in all cases: cell-based
hNav1.7 = hNav1.7 (Homo sapiens, UniProt Q15858); format: cell-based; settings: IonWorks Quattro, use-dependent block, hNav1.7; read-out: IWQ Use Nav1.7
hNav1.5 = hNav1.5 (Homo sapiens, UniProt Q14524); settings: IonWorks Quattro, use-dependent block, hNav1.5; read-out: IWQ Use Nav1.5
hNav1.3 = hNav1.3 (Homo sapiens, UniProt Q9NY46); settings: IonWorks Quattro, use-dependent block, hNav1.3; read-out: IWQ Use Nav1.3
hNav1.3, sequence (Q9NY46 whole entry, looked up): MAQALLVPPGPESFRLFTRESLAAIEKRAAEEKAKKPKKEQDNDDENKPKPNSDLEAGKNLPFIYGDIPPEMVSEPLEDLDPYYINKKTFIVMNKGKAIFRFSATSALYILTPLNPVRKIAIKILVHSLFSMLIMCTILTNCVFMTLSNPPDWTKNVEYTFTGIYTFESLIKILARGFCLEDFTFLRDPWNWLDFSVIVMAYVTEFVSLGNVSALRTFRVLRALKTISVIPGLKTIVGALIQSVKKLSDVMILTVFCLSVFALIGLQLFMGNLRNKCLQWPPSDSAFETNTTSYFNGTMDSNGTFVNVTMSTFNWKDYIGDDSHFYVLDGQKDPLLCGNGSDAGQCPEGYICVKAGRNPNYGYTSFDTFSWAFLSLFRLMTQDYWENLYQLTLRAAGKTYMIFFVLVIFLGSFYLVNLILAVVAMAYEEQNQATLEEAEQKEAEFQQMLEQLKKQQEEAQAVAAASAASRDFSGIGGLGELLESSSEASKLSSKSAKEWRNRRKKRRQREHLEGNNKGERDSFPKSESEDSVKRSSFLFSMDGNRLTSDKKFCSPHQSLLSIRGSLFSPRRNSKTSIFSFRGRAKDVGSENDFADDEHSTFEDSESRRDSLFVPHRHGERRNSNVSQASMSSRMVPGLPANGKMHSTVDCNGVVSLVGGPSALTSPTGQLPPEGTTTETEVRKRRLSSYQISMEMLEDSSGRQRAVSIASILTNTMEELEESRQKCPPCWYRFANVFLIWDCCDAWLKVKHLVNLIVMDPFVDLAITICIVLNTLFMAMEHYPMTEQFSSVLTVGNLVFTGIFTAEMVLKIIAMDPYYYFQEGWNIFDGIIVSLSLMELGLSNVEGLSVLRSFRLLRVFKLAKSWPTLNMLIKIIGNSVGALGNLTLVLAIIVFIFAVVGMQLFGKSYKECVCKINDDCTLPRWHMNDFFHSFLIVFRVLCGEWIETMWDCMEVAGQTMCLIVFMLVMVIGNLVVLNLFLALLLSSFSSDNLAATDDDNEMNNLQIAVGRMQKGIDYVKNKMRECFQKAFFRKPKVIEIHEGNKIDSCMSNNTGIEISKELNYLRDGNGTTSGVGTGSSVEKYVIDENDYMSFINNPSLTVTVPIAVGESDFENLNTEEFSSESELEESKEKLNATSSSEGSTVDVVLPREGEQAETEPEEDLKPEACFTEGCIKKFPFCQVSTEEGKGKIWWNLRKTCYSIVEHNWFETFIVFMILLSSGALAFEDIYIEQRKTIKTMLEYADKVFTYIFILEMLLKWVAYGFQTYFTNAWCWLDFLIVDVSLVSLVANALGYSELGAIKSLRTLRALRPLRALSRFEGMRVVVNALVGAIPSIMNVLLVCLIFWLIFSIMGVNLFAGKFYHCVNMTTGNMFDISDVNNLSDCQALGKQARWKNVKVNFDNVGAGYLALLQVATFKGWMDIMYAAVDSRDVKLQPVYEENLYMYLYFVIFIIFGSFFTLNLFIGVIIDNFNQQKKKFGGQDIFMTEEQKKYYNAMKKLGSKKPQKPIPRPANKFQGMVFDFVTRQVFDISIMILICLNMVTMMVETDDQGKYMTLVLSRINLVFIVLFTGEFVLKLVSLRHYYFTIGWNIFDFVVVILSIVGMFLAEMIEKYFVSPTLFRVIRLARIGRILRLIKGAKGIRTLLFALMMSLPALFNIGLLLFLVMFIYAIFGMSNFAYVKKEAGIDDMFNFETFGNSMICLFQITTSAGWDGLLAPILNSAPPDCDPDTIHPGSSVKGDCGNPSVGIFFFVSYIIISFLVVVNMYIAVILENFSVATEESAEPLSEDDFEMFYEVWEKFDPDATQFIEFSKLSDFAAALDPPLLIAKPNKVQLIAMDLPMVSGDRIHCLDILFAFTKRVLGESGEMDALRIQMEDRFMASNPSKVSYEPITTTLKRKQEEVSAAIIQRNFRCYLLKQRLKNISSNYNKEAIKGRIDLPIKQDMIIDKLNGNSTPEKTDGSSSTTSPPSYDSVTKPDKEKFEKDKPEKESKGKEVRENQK

hNav1.5, sequence (Q14524 whole entry, looked up): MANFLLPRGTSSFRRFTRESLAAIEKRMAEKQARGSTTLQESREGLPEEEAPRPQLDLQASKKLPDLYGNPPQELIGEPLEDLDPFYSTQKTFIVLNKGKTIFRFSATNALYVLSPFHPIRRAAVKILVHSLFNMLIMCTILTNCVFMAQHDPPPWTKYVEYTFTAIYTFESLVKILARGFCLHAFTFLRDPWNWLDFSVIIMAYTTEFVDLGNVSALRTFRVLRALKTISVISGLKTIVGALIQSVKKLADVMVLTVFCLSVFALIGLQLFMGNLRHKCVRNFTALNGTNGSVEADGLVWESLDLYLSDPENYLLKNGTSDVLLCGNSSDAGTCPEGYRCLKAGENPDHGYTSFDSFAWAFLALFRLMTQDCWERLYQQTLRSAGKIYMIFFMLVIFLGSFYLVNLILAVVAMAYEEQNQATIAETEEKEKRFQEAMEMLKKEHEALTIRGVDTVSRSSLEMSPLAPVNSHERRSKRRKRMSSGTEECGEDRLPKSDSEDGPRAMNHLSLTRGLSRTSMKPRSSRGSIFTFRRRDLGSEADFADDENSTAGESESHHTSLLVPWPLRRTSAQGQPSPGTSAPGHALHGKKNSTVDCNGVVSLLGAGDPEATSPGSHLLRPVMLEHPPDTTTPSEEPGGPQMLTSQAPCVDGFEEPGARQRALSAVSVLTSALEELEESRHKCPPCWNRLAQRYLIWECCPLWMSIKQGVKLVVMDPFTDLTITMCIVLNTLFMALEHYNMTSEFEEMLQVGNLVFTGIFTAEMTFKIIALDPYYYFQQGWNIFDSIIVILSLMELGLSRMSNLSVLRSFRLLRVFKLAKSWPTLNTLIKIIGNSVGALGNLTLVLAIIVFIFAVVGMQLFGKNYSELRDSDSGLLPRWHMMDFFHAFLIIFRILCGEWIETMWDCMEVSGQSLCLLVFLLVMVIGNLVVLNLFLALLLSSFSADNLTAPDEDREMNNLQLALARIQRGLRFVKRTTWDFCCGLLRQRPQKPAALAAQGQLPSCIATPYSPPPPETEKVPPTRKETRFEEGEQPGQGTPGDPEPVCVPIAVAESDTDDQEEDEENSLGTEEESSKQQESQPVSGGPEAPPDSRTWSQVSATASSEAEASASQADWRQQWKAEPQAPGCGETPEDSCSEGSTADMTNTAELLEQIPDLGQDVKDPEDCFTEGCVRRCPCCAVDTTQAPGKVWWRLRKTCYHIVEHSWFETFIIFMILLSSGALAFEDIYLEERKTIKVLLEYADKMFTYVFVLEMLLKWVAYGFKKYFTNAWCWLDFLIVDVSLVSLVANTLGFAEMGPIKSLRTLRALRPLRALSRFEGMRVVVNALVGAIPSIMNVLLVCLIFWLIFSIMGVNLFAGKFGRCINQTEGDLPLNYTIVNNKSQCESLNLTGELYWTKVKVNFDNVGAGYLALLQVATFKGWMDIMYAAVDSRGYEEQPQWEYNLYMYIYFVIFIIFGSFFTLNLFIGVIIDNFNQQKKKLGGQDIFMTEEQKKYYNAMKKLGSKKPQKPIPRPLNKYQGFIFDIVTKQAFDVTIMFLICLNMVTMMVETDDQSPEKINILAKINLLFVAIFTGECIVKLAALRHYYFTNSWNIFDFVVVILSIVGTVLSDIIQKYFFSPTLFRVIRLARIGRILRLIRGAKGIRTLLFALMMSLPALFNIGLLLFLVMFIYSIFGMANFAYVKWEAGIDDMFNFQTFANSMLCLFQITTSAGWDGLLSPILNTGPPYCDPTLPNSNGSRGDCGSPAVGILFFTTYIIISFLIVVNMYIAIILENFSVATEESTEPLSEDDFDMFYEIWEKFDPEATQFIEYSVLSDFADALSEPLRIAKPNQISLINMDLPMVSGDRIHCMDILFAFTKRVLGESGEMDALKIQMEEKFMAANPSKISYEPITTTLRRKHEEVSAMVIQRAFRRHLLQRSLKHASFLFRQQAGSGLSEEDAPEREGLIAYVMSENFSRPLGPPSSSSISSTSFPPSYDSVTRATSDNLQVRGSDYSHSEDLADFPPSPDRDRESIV

SMILES	IC50 (hNav1.7)	IC50 (hNav1.5)	IC50 (hNav1.3)
CC[C@H](C)[C@@H]1NC(=O)[C@@H]2CSSC[C@@H]3NC(=O)[C@H](C(C)C)NC(=O)[C@H](CC(C)C)NC(=O)[C@H](CC(N)=O)NC(=O)[C@@H]4CCCN4C(=O)[C@H](CCCNC(=N)N)NC(=O)[C@H](CSSC[C@H](NC(=O)[C@@H](N)CC(=O)O)C(=O)N[C@@H](CC(C)C)C(=O)NCC(=O)N[C@@H](C)C(=O)N[C@@H](Cc4ccccc4)C(=O)N[C@@H](CCCNC(=N)N)C(=O)N[C@@H](CCCCN)C(=O)N2)NC(=O)[C@H](CSSC[C@@H](C(=O)N[C@@H](CCCCN)C(=O)N[C@@H](Cc2ccc(O)cc2)C(=O)N[C@H](C(=O)N[C@@H](Cc2ccccc2)C(=O)N[C@@H](Cc2c[nH]c4ccccc24)C(=O)O)C(C)C)NC(=O)[C@H](Cc2c[nH]c4ccccc24)NC(=O)[C@H](CCCNC(=N)N)NC(=O)[C@H](Cc2c[nH]cn2)NC(=O)[C@H]([C@@H](C)O)NC(=O)[C@H](CCCNC(=N)N)NC(=O)[C@H](CO)NC3=O)NC(=O)[C@H](CCCCN)NC(=O)[C@H](CC(=O)O)NC(=O)[C@H](CC(N)=O)NC(=O)[C@H](CC(=O)O)NC(=O)[C@@H]2CCCN2C1=O [compound 813] (H-DCLGAFRKCIPDNDKCCRPNLVCSRTHRWCKYVFW-OH; disulfide 2-17, 9-23, 16-30)	> 5 µM	> 5 µM	> 5 µM
CC[C@H](C)[C@@H]1NC(=O)[C@@H]2CSSC[C@@H]3NC(=O)[C@H](C(C)C)NC(=O)[C@H](CC(C)C)NC(=O)[C@H](CC(N)=O)NC(=O)[C@@H]4CCCN4C(=O)[C@H](CCCNC(=N)N)NC(=O)[C@H](CSSC[C@H](NC(=O)[C@@H](N)CC(=O)O)C(=O)N[C@@H](CC(C)C)C(=O)NCC(=O)N[C@@H](C)C(=O)N[C@@H](CC(C)C)C(=O)N[C@@H](CCCNC(=N)N)C(=O)N[C@@H](CCCCN)C(=O)N2)NC(=O)[C@H](CSSC[C@@H](C(=O)N[C@@H](CCCCN)C(=O)N[C@@H](Cc2ccc(O)cc2)C(=O)N[C@H](C(=O)N[C@@H](Cc2ccccc2)C(=O)N[C@@H](Cc2c[nH]c4ccccc24)C(=O)O)C(C)C)NC(=O)[C@H](Cc2c[nH]c4ccccc24)NC(=O)[C@H](CCCNC(=N)N)NC(=O)[C@H](Cc2c[nH]cn2)NC(=O)[C@H]([C@@H](C)O)NC(=O)[C@H](CCCNC(=N)N)NC(=O)[C@H](CO)NC3=O)NC(=O)[C@H](CCCCN)NC(=O)[C@H](CC(=O)O)NC(=O)[C@H](CC(N)=O)NC(=O)[C@H](CC(=O)O)NC(=O)[C@@H]2CCCN2C1=O [compound 814] (H-DCLGALRKCIPDNDKCCRPNLVCSRTHRWCKYVFW-OH; disulfide 2-17, 9-23, 16-30)	0.6 µM	> 5 µM	0.6 µM
CC[C@H](C)[C@@H]1NC(=O)[C@@H]2CSSC[C@@H]3NC(=O)[C@H](C(C)C)NC(=O)[C@H](CC(C)C)NC(=O)[C@H](CC(N)=O)NC(=O)[C@@H]4CCCN4C(=O)[C@H](CCCNC(=N)N)NC(=O)[C@H](CSSC[C@H](NC(=O)[C@H](CC(=O)O)NC(=O)[C@H](CO)NC(=O)CN)C(=O)N[C@@H](CC(C)C)C(=O)NCC(=O)N[C@@H](C)C(=O)N[C@@H](Cc4ccccc4)C(=O)N[C@@H](CCCNC(=N)N)C(=O)N[C@@H](CCCCN)C(=O)N2)NC(=O)[C@H](CSSC[C@@H](C(=O)N[C@@H](CCCCN)C(=O)N[C@@H](Cc2ccc(O)cc2)C(=O)N[C@H](C(=O)N[C@@H](Cc2ccccc2)C(=O)N[C@@H](Cc2c[nH]c4ccccc24)C(=O)O)C(C)C)NC(=O)[C@H](Cc2c[nH]c4ccccc24)NC(=O)[C@H](CCCNC(=N)N)NC(=O)[C@H](Cc2c[nH]cn2)NC(=O)[C@H]([C@@H](C)O)NC(=O)[C@H](CCCNC(=N)N)NC(=O)[C@H](CO)NC3=O)NC(=O)[C@H](CCCCN)NC(=O)[C@H](CC(=O)O)NC(=O)[C@H](CC(N)=O)NC(=O)[C@H](CC(=O)O)NC(=O)[C@@H]2CCCN2C1=O [compound 815] (H-GSDCLGAFRKCIPDNDKCCRPNLVCSRTHRWCKYVFW-OH; disulfide 4-19, 11-25, 18-32)	> 5 µM	> 5 µM	> 5 µM
CC[C@H](C)[C@@H]1NC(=O)[C@@H]2CSSC[C@@H]3NC(=O)[C@H](C(C)C)NC(=O)[C@H](CC(C)C)NC(=O)[C@H](CC(N)=O)NC(=O)[C@@H]4CCCN4C(=O)[C@H](CCCNC(=N)N)NC(=O)[C@H](CSSC[C@H](NC(=O)[C@@H](N)CC(=O)O)C(=O)N[C@@H](CC(C)C)C(=O)NCC(=O)N[C@@H](C)C(=O)N[C@@H](Cc4ccccc4)C(=O)N[C@@H](CCCNC(=N)N)C(=O)N[C@@H](CCCCN)C(=O)N2)NC(=O)[C@H](CSSC[C@@H](C(=O)N[C@@H](CCCCN)C(=O)N[C@@H](Cc2ccc(O)cc2)C(=O)N[C@H](C(=O)N[C@@H](Cc2ccccc2)C(=O)N[C@@H](Cc2ccccc2)C(=O)O)C(C)C)NC(=O)[C@H](Cc2c[nH]c4ccccc24)NC(=O)[C@H](CCCNC(=N)N)NC(=O)[C@H](Cc2c[nH]cn2)NC(=O)[C@H]([C@@H](C)O)NC(=O)[C@H](CCCNC(=N)N)NC(=O)[C@H](CO)NC3=O)NC(=O)[C@H](CCCCN)NC(=O)[C@H](CC(=O)O)NC(=O)[C@H](CC(N)=O)NC(=O)[C@H](CC(=O)O)NC(=O)[C@@H]2CCCN2C1=O [compound 817] (H-DCLGAFRKCIPDNDKCCRPNLVCSRTHRWCKYVFF-OH; disulfide 2-17, 9-23, 16-30)	1.5 µM	> 5 µM	0.5 µM
CC[C@H](C)[C@@H]1NC(=O)[C@@H]2CSSC[C@@H]3NC(=O)[C@H](C(C)C)NC(=O)[C@H](CC(C)C)NC(=O)[C@H](CC(N)=O)NC(=O)[C@@H]4CCCN4C(=O)[C@H](CCCNC(=N)N)NC(=O)[C@H](CSSC[C@H](NC(=O)[C@@H](N)CC(=O)O)C(=O)N[C@@H](CC(C)C)C(=O)NCC(=O)N[C@@H](C)C(=O)N[C@@H](CC(C)C)C(=O)N[C@@H](CCCNC(=N)N)C(=O)N[C@@H](CCCCN)C(=O)N2)NC(=O)[C@H](CSSC[C@@H](C(=O)N[C@@H](CCCCN)C(=O)N[C@@H](Cc2ccc(O)cc2)C(=O)N[C@H](C(=O)N[C@@H](Cc2ccccc2)C(=O)N[C@@H](Cc2ccccc2)C(=O)O)C(C)C)NC(=O)[C@H](Cc2c[nH]c4ccccc24)NC(=O)[C@H](CCCNC(=N)N)NC(=O)[C@H](Cc2c[nH]cn2)NC(=O)[C@H]([C@@H](C)O)NC(=O)[C@H](CCCNC(=N)N)NC(=O)[C@H](CO)NC3=O)NC(=O)[C@H](CCCCN)NC(=O)[C@H](CC(=O)O)NC(=O)[C@H](CC(N)=O)NC(=O)[C@H](CC(=O)O)NC(=O)[C@@H]2CCCN2C1=O [compound 818] (H-DCLGALRKCIPDNDKCCRPNLVCSRTHRWCKYVFF-OH; disulfide 2-17, 9-23, 16-30)	2.3 µM	> 5 µM	0.8 µM
CC[C@H](C)[C@@H]1NC(=O)[C@@H]2CSSC[C@@H]3NC(=O)[C@H](C(C)C)NC(=O)[C@H](CC(C)C)NC(=O)[C@H](CC(N)=O)NC(=O)[C@@H]4CCCN4C(=O)[C@H](CCCNC(=N)N)NC(=O)[C@H](CSSC[C@H](NC(=O)[C@H](CC(=O)O)NC(=O)[C@H](CO)NC(=O)CN)C(=O)N[C@@H](CC(C)C)C(=O)NCC(=O)N[C@@H](C)C(=O)N[C@@H](Cc4ccccc4)C(=O)N[C@@H](CCCNC(=N)N)C(=O)N[C@@H](CCCCN)C(=O)N2)NC(=O)[C@H](CSSC[C@@H](C(=O)N[C@@H](CCCCN)C(=O)N[C@@H](Cc2ccc(O)cc2)C(=O)N[C@H](C(=O)N[C@@H](Cc2ccccc2)C(=O)N[C@@H](Cc2ccccc2)C(=O)O)C(C)C)NC(=O)[C@H](Cc2c[nH]c4ccccc24)NC(=O)[C@H](CCCNC(=N)N)NC(=O)[C@H](Cc2c[nH]cn2)NC(=O)[C@H]([C@@H](C)O)NC(=O)[C@H](CCCNC(=N)N)NC(=O)[C@H](CO)NC3=O)NC(=O)[C@H](CCCCN)NC(=O)[C@H](CC(=O)O)NC(=O)[C@H](CC(N)=O)NC(=O)[C@H](CC(=O)O)NC(=O)[C@@H]2CCCN2C1=O [compound 819] (H-GSDCLGAFRKCIPDNDKCCRPNLVCSRTHRWCKYVFF-OH; disulfide 4-19, 11-25, 18-32)	1.5 µM	> 5 µM	0.5 µM
CC[C@H](C)[C@@H]1NC(=O)[C@@H]2CSSC[C@@H]3NC(=O)[C@H](C(C)C)NC(=O)[C@H](CC(C)C)NC(=O)[C@H](CC(N)=O)NC(=O)[C@@H]4CCCN4C(=O)[C@H](CCCNC(=N)N)NC(=O)[C@H](CSSC[C@H](NC(=O)[C@H](CC(=O)O)NC(=O)[C@H](CO)NC(=O)CN)C(=O)N[C@@H](CC(C)C)C(=O)NCC(=O)N[C@@H](C)C(=O)N[C@@H](Cc4ccccc4)C(=O)N[C@@H](CCCNC(=N)N)C(=O)N[C@@H](CCCCN)C(=O)N2)NC(=O)[C@H](CSSC[C@@H](C(=O)N[C@@H](CCCCN)C(=O)N[C@@H](Cc2ccc(O)cc2)C(=O)N[C@H](C(=O)N[C@@H](Cc2ccccc2)C(=O)O)C(C)C)NC(=O)[C@H](Cc2c[nH]c4ccccc24)NC(=O)[C@H](CCCNC(=N)N)NC(=O)[C@H](Cc2c[nH]cn2)NC(=O)[C@H]([C@@H](C)O)NC(=O)[C@H](CCCNC(=N)N)NC(=O)[C@H](CO)NC3=O)NC(=O)[C@H](CCCCN)NC(=O)[C@H](CC(=O)O)NC(=O)[C@H](CC(N)=O)NC(=O)[C@H](CC(=O)O)NC(=O)[C@@H]2CCCN2C1=O [compound 821] (H-GSDCLGAFRKCIPDNDKCCRPNLVCSRTHRWCKYVF-OH; disulfide 4-19, 11-25, 18-32)	3.2 µM	> 5 µM	3.2 µM
CC[C@H](C)[C@@H]1NC(=O)[C@@H]2CSSC[C@@H]3NC(=O)[C@H](C(C)C)NC(=O)[C@H](CC(C)C)NC(=O)[C@H](CC(N)=O)NC(=O)[C@@H]4CCCN4C(=O)[C@H](CCCNC(=N)N)NC(=O)[C@H](CSSC[C@H](NC(=O)[C@@H](N)CC(=O)O)C(=O)N[C@@H](CC(C)C)C(=O)NCC(=O)N[C@@H](C)C(=O)N[C@@H](Cc4ccccc4)C(=O)N[C@@H](CCCNC(=N)N)C(=O)N[C@@H](CCCCN)C(=O)N2)NC(=O)[C@H](CSSC[C@@H](C(=O)N[C@@H](CCCCN)C(=O)N[C@@H](Cc2ccc(O)cc2)C(=O)N[C@H](C(=O)N[C@@H](Cc2ccccc2)C(=O)O)C(C)C)NC(=O)[C@H](Cc2c[nH]c4ccccc24)NC(=O)[C@H](CCCNC(=N)N)NC(=O)[C@H](Cc2c[nH]cn2)NC(=O)[C@H]([C@@H](C)O)NC(=O)[C@H](CCCNC(=N)N)NC(=O)[C@H](CO)NC3=O)NC(=O)[C@H](CCCCN)NC(=O)[C@H](CC(=O)O)NC(=O)[C@H](CC(N)=O)NC(=O)[C@H](CC(=O)O)NC(=O)[C@@H]2CCCN2C1=O [compound 823] (H-DCLGAFRKCIPDNDKCCRPNLVCSRTHRWCKYVF-OH; disulfide 2-17, 9-23, 16-30)	3.4 µM	> 5 µM	3.4 µM

From patent US9340590B2 (priority 2011, dated 2016)
